These results are taken from patent US9079880B2, “Rho kinase inhibitors” (Boehringer Ingelheim International GmbH, priority 2010, dated 2015).

The target of assay [1] is T1, ROCKII (1-543) (Homo sapiens (Human), UniProt O75116). Kind of assay: Luciferin-Luciferase Assay (PKLight ATP detection). In kind it is biochemical. The note with it: 750 nM ATP, 500 nM peptide, 7.5 nM kinase. Here is the method: 1. Luciferin-Luciferase Assay
The activity of ROCKII (1-543) kinase was measured utilizing Cambrex PKLight ATP Detection Reagent, a homogeneous assay technology using luciferin-luciferase to quantify residual ATP. The assay was performed in 384-well low-volume, white, non-binding surface microtiter plates (Corning). The assay buffer was 25 mM HEPES, pH 7.5, 10 mM MgCl2, 50 mM KCl, 0.2% BSA, 0.01% CHAPS, 100 μM Na3VO4 and 0.5 mM DTT. Test compounds, dissolved in neat DMSO at 500 μg/mL, were serially diluted for dose response for a final starting concentration of 3 μg/mL in 1% DMSO of assay buffer. ROCKII (1-543) (62,408Da) was diluted in assay buffer to a final concentration of 7.5 nM in a total volume of 15 μL. Positive controls were reaction mixtures containing no test compound; negative controls (blanks) were reaction mixtures containing no kinase. After 15 minutes of pre-incubation of the test compounds with the kinase, a mixture of ATP and peptide substrate ([…]) in assay buffer was added to each well for a final concentration of 750 nM ATP and 500 nM peptide, respectively. After 90 minutes of incubation of the kinase reaction at 28° C. temperature, 10 μL of PKLight ATP Detection Reagent (warmed to room temperature previously) was added to each well. The assay plate was incubated at room temperature for additional 15 minutes and then read on an Analyst in luminescence mode. Dose-response experiments for each of the test compounds were conducted in quadruplet. IC50 values of test compounds represent 50% response of the positive control from the dose-response curve.
Target sequence in this assay (O75116 1-543): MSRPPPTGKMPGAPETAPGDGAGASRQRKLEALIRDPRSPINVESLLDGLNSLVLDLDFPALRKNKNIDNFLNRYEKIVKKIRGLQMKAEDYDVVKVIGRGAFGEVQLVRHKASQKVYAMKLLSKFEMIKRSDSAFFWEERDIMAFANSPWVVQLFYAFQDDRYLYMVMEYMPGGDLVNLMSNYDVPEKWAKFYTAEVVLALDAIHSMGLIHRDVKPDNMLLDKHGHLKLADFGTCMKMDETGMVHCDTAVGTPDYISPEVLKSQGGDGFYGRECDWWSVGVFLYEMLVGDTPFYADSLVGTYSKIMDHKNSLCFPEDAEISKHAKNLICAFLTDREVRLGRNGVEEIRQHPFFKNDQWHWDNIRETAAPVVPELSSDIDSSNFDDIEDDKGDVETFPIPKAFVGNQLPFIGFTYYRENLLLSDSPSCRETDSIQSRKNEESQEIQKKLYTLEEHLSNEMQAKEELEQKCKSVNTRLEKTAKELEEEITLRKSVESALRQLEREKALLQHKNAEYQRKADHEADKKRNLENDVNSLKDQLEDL

In assay [2] the target is T1, ROCKII (1-543). Kind of assay: IMAP Assay (fluorescence polarization, FAM S6 peptide). It is filed as biochemical. To be noted: 100 μM ATP, 200 nM FAM S6 peptide, 1 nM kinase; read-out: Assay 2 IC50. Here is the method:
This assay is performed using FAM S6 substrate peptide (Catalogue #R7184) and IMAP FP Screening Express Kit detection reagents from Molecular Devices (Sunnyvale, Calif.) in IMAP kinase reaction buffer (Tris-HCl, pH 7.2, 10 mM MgCl2, 0.05% NaN3, 0.1% phosphate-free BSA) containing 1 mM DTT. Test compounds dissolved in neat DMSO at 0.3 mg/mL are serially diluted 1 to 3 for concentration response in 100% DMSO. The DMSO serial dilutions are further diluted 33.33-fold in kinase reaction buffer, and 10 μL of this buffer dilution is transferred to Corning black 96-well half area NBS plates for a final top concentration of 3 μg/mL in 1% DMSO. 10 μL aliquot of 3 nM ROCKII (1-543) diluted in kinase reaction buffer is added to each assay well for a final concentration of 1 nM kinase. 10 μL of a mixture of 600 nM FAM S6 peptide and 300 μM ATP diluted in kinase reaction buffer is added to each well for a final concentration of 200 nM peptide and 100 μM ATP. The kinase reaction mixture is incubated for 60 minutes at room temperature. Positive controls are reaction mixtures containing no test compound and negative controls (blanks) are reaction mixtures containing no kinase. The kinase reaction is stopped by addition of 60 μL IMAP progressive binding reagent (Catalog #R7284) diluted 400-fold in 1× Binding buffer A. After 30 min of incubation at room temperature, the plates are read for fluorescence polarization on Analyst Plate Reader using Ex 485 nm, Em 530 nm, and FL 505 dichroic mirror. The mP signals are converted to percent of control (POC) values using the formula: POC=100*(Signal−BCTRL)÷(PCTRL−BCTRL)
Where Signal is the test well signal, BCTRL is the average of background (negative control) well signals on the plate and PCTRL is the average of positive control well signals on the plate. For the concentration-responsive compounds, POC as a function of test compound concentration is fitted to a 4-parameter logistic equation of the form: Y=A+(B−A)/[1+(x/C)D] Where A, B, C, and D are fitted parameters (parameter B is fixed at zero POC), and x and y are the independent and dependent variables, respectively. The IC50 is determined as the inflection point parameter, C.
Target sequence in this assay (O75116 1-543, species assumed): as the sequence (O75116 1-543) above
A general note: In fluorescence polarisation assays a small probe gives low polarisation when free and higher when bound to something large.

For assay [3], the system named is IL-1 beta-induced coronary stenosis. The note with it: long term treatment; cited from earlier work.
A further assay has as its system rat stroke model. To be noted: in vivo; cited from earlier work.
The subject of assay [4] is spontaneously hypertensive rat, renal hypertensive rat and deoxycortisone acetate salt hypertensive rat models. To be noted: cited from earlier work.
Assay [5] concerns neointimal formation in rats. To be noted: cited from earlier work.
In a further assay the test system is Dahl salt-sensitive rats. To be noted: rat, in vivo; cited from earlier work.

pIC50: −log10 of the molar value.

The pIC50 is the negative decadic logarithm of the IC50, by convention in mol/L.

As for `CN(C)[C@H]1CCc2nc(NC(=O)c3cccc([C@H]4CCCN4C(=O)c4ccc(-n5ccnc5)cc4)c3)sc2C1` [Compound 102], the pIC50 against ROCKII (1-543) [1] was 8.59; on ROCKII (1-543) [2], 8.44.

Regarding `CCCN[C@H]1CCc2nc(NC(=O)c3cccc([C@@H](C)NC(=O)c4ccc(OC)c(Cl)c4)c3)sc2C1` [Compound 33], the pIC50 was 8.92 at ROCKII (1-543) [1] and 9.30 at ROCKII (1-543) [2].

For the compound `O=S(=O)(c1cccc2cnccc12)N1CCCNCC1` [fasudil], in assay [3], the coronary constrictive remodeling result is reported as “promote a regression of coronary constrictive remodeling” and the coronary stenosis result was “progressively reduce coronary stenosis”. Further, the “infarct size and neurologic deficit” value in the assay on rat stroke model was “reduce both the infarct size and neurologic deficit”.

Take `CN1CCc2nc(NC(=O)c3cccc([C@H]4CCCN4C(=O)c4cccc(-c5cn[nH]c5)c4)c3)sc2C1` [Compound 78]: the pIC50 on ROCKII (1-543) [1] was 8.72; at ROCKII (1-543) [2] it was 8.68.

As for `N#Cc1cccc(NC(=O)N2CCC[C@@H]2c2cccc(C(=O)Nc3nc4c(s3)C[C@H](N)CC4)c2)c1` [Compound 22], the pIC50 on ROCKII (1-543) [1] was 8.59; on ROCKII (1-543) [2], 9.00.

In the case of `COc1ccc(C(=O)N2CCC[C@@H]2c2cccc(C(=O)Nc3nc4c(s3)C[C@@H](N3CCOCC3)CC4)c2)cc1C` [Compound 116], the figures for the pIC50 on ROCKII (1-543) [1] and on ROCKII (1-543) [2] were 8.11 and 8.01, respectively.

For the compound `N#Cc1cccc2c1CCN2C(=O)N1CCC[C@@H]1c1cccc(C(=O)Nc2nc3c(s2)C[C@@H](N2CCOCC2)CC3)c1` [Compound 110], the pIC50 at ROCKII (1-543) [1] and at ROCKII (1-543) [2] was 8.54 throughout.

With `COc1ccc(C(=O)N[C@H](C)c2cccc(C(=O)Nc3nc4c(s3)CN(C)CC4)c2)cc1Cl` [Compound 89], the pIC50 is 8.41 against ROCKII (1-543) [1] and 7.89 on ROCKII (1-543) [2].

Consider `CN1CCc2nc(NC(=O)c3cccc([C@H]4CCCN4C(=O)Nc4ccc(C(N)=O)cc4)c3)sc2C1` [Compound 44], for which the pIC50 on ROCKII (1-543) [1] was 8.85; at ROCKII (1-543) [2] it was 9.15.

In the case of `COc1ccc(C(=O)N[C@H](C)c2cccc(C(=O)Nc3nc4c(s3)CN(C)CC4)c2)cc1C` [Compound 93], the results for the pIC50 against ROCKII (1-543) [1] and at ROCKII (1-543) [2] were 8.05 and 7.54, respectively.

In the case of `CN1CCc2nc(NC(=O)c3cccc([C@H]4CCCN4C(=O)N4CCc5c(C#N)cccc54)c3)sc2C1` [Compound 42, 3-[(R)-1-(4-Cyano-2,3-dihydro-indole-1-carbonyl)-pyrrolidin-2-yl]-N-(5-methyl-4,5,6,7-tetrahydro-thiazolo[5,4-c]pyridin-2-yl)-benzamide trifluoroacetic acid], the pIC50 at ROCKII (1-543) [1] was 8.16; on ROCKII (1-543) [2], 7.35.

Regarding `O=C(Nc1nc2c(s1)C[C@@H](N1CCOCC1)CC2)c1cccc([C@H]2CCCN2C(=O)c2ccc3cc(O)ccc3c2)c1` [Compound 130], the negative logarithm of the IC50 (pIC50) was 8.60 on ROCKII (1-543) [1] and 8.20 at ROCKII (1-543) [2].

Take `CCCN[C@H]1CCc2nc(NC(=O)c3cccc([C@H]4CCCN4C(=O)Nc4cccc(C#N)c4)c3)sc2C1` [Compound 29, (R)-2-[3-((S)-6-propylamino-4,5,6,7-tetrahydro-benzothiazol-2-ylcarbamoyl)-phenyl]-pyrrolidine-1-carboxylic acid (3-cyano-phenyl)-amide]: the results for the pIC50 against ROCKII (1-543) [1] and at ROCKII (1-543) [2] were 8.80 and 9.10, respectively.

Regarding `O=C(Nc1nc2c(s1)C[C@@H](N1CCOCC1)CC2)c1cccc([C@H]2CCCN2C(=O)c2cccc(-c3cn[nH]c3)c2)c1` [Compound 140], the pIC50 against ROCKII (1-543) [1] is 8.60; on ROCKII (1-543) [2], 8.31.

For the compound `N#Cc1ccc(NC(=O)COc2cccc(C(=O)Nc3nc4c(s3)C[C@@H](N)CC4)c2)cc1` [Compound 11, N—((S)-6-amino-4,5,6,7-tetrahydro-benzothiazol-2-yl)-3-[(4-cyano-phenylcarbamoyl)-methoxy]-benzamide], the pIC50 against ROCKII (1-543) [1] was 8.43; on ROCKII (1-543) [2], 7.96.

As to `NC(=O)c1ccc2nc(C(=O)N3CCC[C@@H]3c3cccc(C(=O)Nc4nc5c(s4)C[C@@H](N4CCOCC4)CC5)c3)cn2c1` [Compound 124], the figures for the pIC50 at ROCKII (1-543) [1] and at ROCKII (1-543) [2] were 8.64 and 8.17, respectively.

For `O=C(Nc1nc2c(s1)C[C@@H](N1CCOCC1)CC2)c1cccc([C@H]2CCCN2C(=O)c2csc(-c3ccncc3)n2)c1` [Compound 120], the pIC50 on ROCKII (1-543) [1] was 8.49; on ROCKII (1-543) [2], 8.10.

`N#Cc1cccc(NC(=O)N2CCC[C@@H]2c2cccc(C(=O)Nc3ccc(CCN4CCOCC4)cc3)c2)c1` [Compound 16, (R)-2-{3-[4-(2-morpholin-4-yl-ethyl)-phenylcarbamoyl]-phenyl}-pyrrolidine-1-carboxylic acid (3-cyano-phenyl)-amide trifluoro acetic acid]: the results for the pIC50 against ROCKII (1-543) [1] and on ROCKII (1-543) [2] were 8.24 and 7.64, respectively.

As to `COCCN(C)C1CCc2nc(NC(=O)c3cccc(OCC(=O)Nc4ccc(C#N)cc4)c3)sc2C1` (centres unmarked) [Compound 156], the pIC50 against ROCKII (1-543) [1] is 8.14; on ROCKII (1-543) [2] it was 7.51.

`O=C(Nc1nc2c(s1)C[C@@H](N1CCOCC1)CC2)c1cccc([C@H]2CCCN2C(=O)c2ccc(-n3ccnc3)cc2)c1` [Compound 122]: the pIC50 was 8.46 at ROCKII (1-543) [1] and 8.08 on ROCKII (1-543) [2].

`CN1CCc2nc(NC(=O)c3cccc([C@H]4CCCN4C(=O)c4cn5ccc(C#N)cc5n4)c3)sc2C1` [Compound 148, 3-[(R)-1-(7-Cyano-imidazo[1,2-a]pyridine-2-carbonyl)-pyrrolidin-2-yl]-N-(5-methyl-4,5,6,7-tetrahydro-thiazolo[5,4-c]pyridin-2-yl)-benzamide]: the pIC50 is 8.54 at ROCKII (1-543) [1] and 7.92 at ROCKII (1-543) [2].

For `C[C@@H](N)[C@H]1CC[C@H](C(=O)Nc2ccncc2)CC1` [Compound Y-27632, Y-27632], the “blood pressure in control rats” value in assay [4] (control rats) was “only a minor effect on blood pressure”. Besides, the “blood pressure in three rat models of hypertension” value in assay [4] (hypertensive rats) is “significantly decrease blood pressure”. Further, the neointimal formation result in assay [5] is “inhibited neointimal formation”. Moreover, the “ventricular hypertrophy and function” value with Dahl salt-sensitive rats was “improve ventricular hypertrophy and function”.
